Measured values as given in the NIST ThermoML archive (doi:10.1021/je050196o).

Columns and labels:
[1] = 101 kPa, Liquid; for viscosity: Capillary tube (Ostwald / Ubbelohde) method; for mass density: Pycnometric method
[2] = xn = mol fraction of the nth substance listed; details: 101 kPa, Liquid; for viscosity: Capillary tube (Ostwald / Ubbelohde) method; for mass density: Pycnometric method

COCC(C)OC(C)=O (configuration not stated) [1-methoxy-2-propyl acetate]
[1]
Details	mass density [kg/m3]	viscosity [mPa·s]
298.15 K	961.4	1.071
308.15 K	951.4	0.904
318.15 K	940.7	0.777

COCC(C)OC(C)=O (configuration not stated) [1-methoxy-2-propyl acetate] + C=C(C)C(=O)O
[2], x1 = 1
Details	mass density [kg/m3]	viscosity [mPa·s]
298.15 K	961.4	1.071
308.15 K	951.4	0.904
318.15 K	940.7	0.777

COCC(C)OC(C)=O (configuration not stated) [1-methoxy-2-propyl acetate] + C=C(C)C(=O)OCCO
[2], x1 = 1
Details	mass density [kg/m3]	viscosity [mPa·s]
298.15 K	961.4	1.071
308.15 K	951.4	0.904
318.15 K	940.7	0.777

COCC(C)OC(C)=O (configuration not stated) [1-methoxy-2-propyl acetate] + C=C(C)C(=O)OCc1ccccc1
[2], x1 = 1
Details	mass density [kg/m3]	viscosity [mPa·s]
298.15 K	961.4	1.071
308.15 K	951.4	0.904
318.15 K	940.7	0.777

C=C(C)C(=O)OCCO [2-hydroxyethyl 2-methyl-2-propenoate]
[1]
Details	mass density [kg/m3]	viscosity [mPa·s]
298.15 K	1067.1	5.784
308.15 K	1057.7	4.194
318.15 K	1048.6	3.181

C=C(C)C(=O)OCCO [2-hydroxyethyl 2-methyl-2-propenoate] + COCC(C)OC(C)=O
[2]
Details	mass density, 298.15 K [kg/m3]	mass density, 308.15 K [kg/m3]	mass density, 318.15 K [kg/m3]	viscosity, 298.15 K [mPa·s]	viscosity, 308.15 K [mPa·s]	viscosity, 318.15 K [mPa·s]
x2 = 0	1067.1	1057.7	1048.6	5.784	4.194	3.181
x2 = 0.1	1056.4	1046.7	1037.3	4.764	3.519	2.71
x2 = 0.2	1045.7	1035.9	1026.1	3.84	2.9	2.273
x2 = 0.3	1034.9	1025	1015.1	3.222	2.477	1.969
x2 = 0.4	1024.1	1014.2	1004.1	2.719	2.123	1.709
x2 = 0.5	1013.5	1003.5	993.3	2.257	1.79	1.461
x2 = 0.6	1003	993	982.6	1.922	1.55	1.284
x2 = 0.7	992.6	982.5	972	1.651	1.341	1.117
x2 = 0.8	982.2	971.9	961.3	1.389	1.147	0.969
x2 = 0.8999	971.8	961.5	950.8	1.234	1.052	0.889

C=C(C)C(=O)O [2-methyl-2-propenoic acid]
[1]
Details	mass density [kg/m3]	viscosity [mPa·s]
298.15 K	1009.5	1.267
308.15 K	999.4	1.078
318.15 K	989.2	0.945

C=C(C)C(=O)O [2-methyl-2-propenoic acid] + COCC(C)OC(C)=O
[2]
Details	mass density, 298.15 K [kg/m3]	mass density, 308.15 K [kg/m3]	mass density, 318.15 K [kg/m3]	viscosity, 298.15 K [mPa·s]	viscosity, 308.15 K [mPa·s]	viscosity, 318.15 K [mPa·s]
x2 = 0	1009.5	999.4	989.2	1.267	1.078	0.945
x2 = 0.1	1004	994.1	983.9	1.423	1.202	1.033
x2 = 0.2	999	989.3	979.4	1.506	1.301	1.105
x2 = 0.3	993.9	984.1	973.9	1.56	1.345	1.124
x2 = 0.3999	989.1	979.2	968.9	1.585	1.348	1.125
x2 = 0.5	984.8	975	964.8	1.569	1.31	1.1
x2 = 0.6	980.1	970.3	959.9	1.499	1.24	1.049
x2 = 0.7	975.8	966	955.5	1.411	1.168	0.988
x2 = 0.7999	970.8	960.9	950.5	1.301	1.081	0.929
x2 = 0.9	965.8	956	945.6	1.175	0.985	0.844

C=C(C)C(=O)OCc1ccccc1 [benzyl methacrylate]
[1]
Details	mass density [kg/m3]	viscosity [mPa·s]
298.15 K	1034.7	2.302
308.15 K	1025.8	1.885
318.15 K	1017	1.58

C=C(C)C(=O)OCc1ccccc1 [benzyl methacrylate] + COCC(C)OC(C)=O
[2]
Details	mass density, 298.15 K [kg/m3]	mass density, 308.15 K [kg/m3]	mass density, 318.15 K [kg/m3]	viscosity, 298.15 K [mPa·s]	viscosity, 308.15 K [mPa·s]	viscosity, 318.15 K [mPa·s]
x2 = 0	1034.7	1025.8	1017	2.302	1.885	1.58
x2 = 0.1	1029	1019.9	1010.9	2.245	1.84	1.544
x2 = 0.2	1023.1	1013.8	1004.6	2.123	1.743	1.465
x2 = 0.3	1017	1007.6	998.2	1.991	1.638	1.377
x2 = 0.4	1010.6	1001.1	991.5	1.857	1.53	1.289
x2 = 0.4999	1003.8	994.2	984.4	1.694	1.399	1.183
x2 = 0.6	996.6	986.9	976.9	1.559	1.286	1.086
x2 = 0.7	989	979.2	969	1.434	1.189	1.007
x2 = 0.8	980.7	970.7	960.3	1.327	1.105	0.937
x2 = 0.9	971.9	961.8	951.2	1.232	1.028	0.874
